pIC50: −log10 of the molar value.

Experiment [1] concerns benzodiazepine binding site. Conditions: cited from earlier work.
The target in another experiment is GABAa receptor. Description: GABAa receptor activity: displacement of 3H-RO15-1788 (3H-Flumazenil) binding in rat cortical tissue homogenate. Conditions: 0.5 nM 3H-RO15-1788 [3H-Flumazenil], 30 min at 4° C., pH 7.4. Here is the method: Rat cortical tissue is dissected and homogenized in 25 volumes (w/v) of 0.05 M Tris HCl buffer (pH 7.4 at 4° C.). The tissue homogenate is centrifuged in the cold (4°) at 20,000×g for 20'. The supernatant is decanted and the pellet is rehomogenized in the same volume of buffer and again centrifuged at 20,000×g. The supernatant is decanted and the pellet is frozen at -20° C. overnight. The pellet is then thawed and rehomogenized in 25 volume (original wt/vol) of buffer and the procedure is carried out twice. The pellet is finally resuspended in 50 volumes (w/vol of 0.05 M Tris HCl buffer (pH 7.4 at […]).
Incubations are carried for 30 min at 4° C. then are rapidly filtered through GFB filters to separate free and bound ligand. Filters are washed twice with fresh 0.05 M Tris HCl buffer (pH 7.4 at 4° C.) and counted in a liquid scintillation counter. […] diazepam is added to some tubes to determine nonspecific binding. Data are collected in triplicate determinations, averaged and % inhibition of total specific binding is calculated. Total Specific Binding=Total-Nonspecific. In some cases, the amounts of unlabeled drugs is varied and total displacement curves of binding are carried out. Data are converted to a form for the calculation of IC50 and Hill Coefficient (nH).
On the technique in general: Loss of bound radioactivity is the signal in a displacement assay; it reports binding, not function.

Take `CN1CCc2cc3c(cc2[C@@H]1[C@H]1OC(=O)c2c1ccc1c2OCO1)OCO3` [(-) bicuculline]: in experiment [1], the “block of the enhancement of benzodiazepine binding by GABA agonists” value is reported as “much less active”.
In the case of `CN1CCc2cc3c(cc2[C@H]1[C@@H]1OC(=O)c2c1ccc1c2OCO1)OCO3` [(+) bicuculline], the “block of the enhancement of benzodiazepine binding by GABA agonists” value in experiment [1] is on record as “blocked”.
As for `NCCCC(=O)O` [GABA, γ-Aminobutyric acid], in experiment [1] (low affinity (1 mM) GABA binding site), the “effect on binding of benzodiazepines” value was “enhance the binding of benzodiazepines”.
The term pIC50 denotes the negative decadic logarithm of the IC50, by convention in mol/L. A lower pIC50 goes with a large IC50. At GABAa receptor, `CCOc1ccc(-n2c(=O)c3c[nH]c4ccccc4n-3c2=O)cc1` [Compound 3, 2-(4-ethoxyphenyl)-imidazo[1,5,a]quinoxaline-1,3(2H,5H)-dione] showed a pIC50 of 7.82.
`COc1ccc(-n2c(=O)c3c[nH]c4ccccc4n-3c2=O)cc1` [Compound 4, 2-(4-Methoxyphenyl)-imidazo[1,5,a]quinoxaline-1,3(2H,5H)-dione]: the negative-log IC50 (pIC50) at GABAa receptor is 8.02.
Regarding `O=c1c2c[nH]c3ccccc3n-2c(=O)n1-c1ccccc1` [Compound 1, 2-Phenyl-imidazo[1,5-a]quinoxaline-1,3(2H,5H)-dione], the pIC50 at GABAa receptor is 8.02.
For `Cc1ccc(-n2c(=O)c3c[nH]c4ccccc4n-3c2=O)cc1` [Compound 5, 2-(4-Methylphenyl)-imidazo[1,5,a]quinoxaline-1,3(2H,5H)-dione], on GABAa receptor, the pIC50 was 7.80.
Same read-out and setting: the value for `COc1ccc(-n2c(=O)c3c[nH]c4ccc(Br)cc4n-3c2=O)cc1` [Compound 33, 8-Bromo-2-(4-methoxyphenyl)-imidazo[1,5,a]quinoxaline-1,3(2H,5H)-dione] was 8.62.

Values taken from patent publication US6268496A, “Certain imidazoquinoxalines: a new class of GABA brain receptor ligands” (Neurogen Corporation, priority 1999, dated 2001).
